Experimental data: patent publication US4690939A, “Anti-hypertensive agents” (University of Miami, priority 1979, dated 1987)
Non-standard residues stand in square brackets, D forms with d. Residues, ends and D or L forms follow the SMILES beside them. No end group written: not given here. pGlu = O=C1CC[C@@H](C(=O)O)N1

Columns and labels:
human urinary ACE = target: T1, human urinary ACE (Homo sapiens, UniProt P12821); experiment: ACE activity assay (inhibition of benzoyl-GlyHisLeu hydrolysis); assay type: biochemical; conditions: substrate approximately 1/2 Km (Example 1 assay), read-out: I50
T1 construct: from tissue; host or cells: human urine
Protocol: These factors include the source of enzyme, its purity, the substrate used and its concentration, and the composition of the assay buffer.
ACE activity assay. […] To initiate the assay, 40 μl of enzyme and 10 μl of water or inhibitor dissolved in water were preincubated for five minutes at 37° C. […] To terminate the reaction, 1 ml of 0.1 M HCl was added, following which 1 ml of ethyl acetate was added. The mixture was agitated on a rotary mixer and centrifuged briefly to separate the phases.
For determination of I50 values, enzyme activity in the presence of inhibitor at a series of different concentrations was compared to activity in the absence of inhibitor.

ACE = conditions: competitive substrates; cited from earlier work

T1 sequence (P12821 30-1232 limits assumed): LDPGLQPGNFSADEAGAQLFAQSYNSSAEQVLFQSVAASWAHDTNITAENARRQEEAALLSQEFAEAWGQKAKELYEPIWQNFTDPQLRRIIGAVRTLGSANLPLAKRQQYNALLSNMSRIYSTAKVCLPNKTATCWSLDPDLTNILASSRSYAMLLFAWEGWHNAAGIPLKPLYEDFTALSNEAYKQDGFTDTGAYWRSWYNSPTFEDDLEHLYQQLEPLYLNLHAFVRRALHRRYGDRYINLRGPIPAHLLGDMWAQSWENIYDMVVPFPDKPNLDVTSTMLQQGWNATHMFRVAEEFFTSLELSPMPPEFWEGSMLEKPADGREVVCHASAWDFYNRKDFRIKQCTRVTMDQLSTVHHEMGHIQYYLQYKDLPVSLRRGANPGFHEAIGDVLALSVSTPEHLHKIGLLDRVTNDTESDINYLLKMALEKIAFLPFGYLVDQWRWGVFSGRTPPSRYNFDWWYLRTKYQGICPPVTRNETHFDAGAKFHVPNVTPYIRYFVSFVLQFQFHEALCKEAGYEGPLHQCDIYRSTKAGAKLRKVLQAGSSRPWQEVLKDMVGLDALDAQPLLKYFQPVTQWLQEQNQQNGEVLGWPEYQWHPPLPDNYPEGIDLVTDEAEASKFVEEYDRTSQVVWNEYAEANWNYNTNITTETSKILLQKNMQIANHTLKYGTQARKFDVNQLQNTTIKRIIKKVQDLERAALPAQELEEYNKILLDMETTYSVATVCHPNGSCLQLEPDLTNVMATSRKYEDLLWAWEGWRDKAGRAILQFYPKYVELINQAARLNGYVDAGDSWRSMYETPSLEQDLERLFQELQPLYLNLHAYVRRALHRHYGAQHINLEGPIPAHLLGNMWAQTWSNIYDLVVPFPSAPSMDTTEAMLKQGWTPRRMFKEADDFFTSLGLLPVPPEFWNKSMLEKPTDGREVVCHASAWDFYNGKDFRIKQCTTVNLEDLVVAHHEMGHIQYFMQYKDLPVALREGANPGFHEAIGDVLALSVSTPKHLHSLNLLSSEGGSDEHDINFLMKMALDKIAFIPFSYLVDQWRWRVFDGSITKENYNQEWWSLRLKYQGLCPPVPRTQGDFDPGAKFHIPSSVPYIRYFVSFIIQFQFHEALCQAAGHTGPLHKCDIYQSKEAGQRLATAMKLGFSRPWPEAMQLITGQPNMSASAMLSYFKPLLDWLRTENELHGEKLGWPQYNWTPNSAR

| IC50 (human urinary ACE) | Molecule | Km relative to angiotensin I (ACE) |
| --- | --- | --- |
| 26 nM | CC(=O)N[C@@H](Cc1ccccc1)C(=O)SC[C@@H](C)C(=O)N1CCC[C@H]1C(=O)O [N^α -[3-(N^α -acetyl-L-phenylalanylthio)-2-D-methylpropanoyl]-L-proline] | – |
| – | RPPGFSPFR [bradykinin] | lower Km than angiotensin I |
| – | C[C@H](NC(=O)[C@H](Cc1c[nH]c2ccccc12)NC(=O)[C@H](CCCCN)NC(=O)[C@@H]1CCC(=O)N1)C(=O)N1CCC[C@H]1C(=O)O [BPP5a] ([pGlu]KWAP-OH) | lower Km than angiotensin I |
